# ChEMBL document CHEMBL5518218, “Discovery of Novel PD-L1 Small-Molecular Inhibitors with Potent In Vivo Anti-tumor Immune Activity” (J Med Chem, 2024)
# Active and inactive are the calls of the source. The calls are words filed in the database; no cut-off is given here.
# Experiments:
# [1] = Prodrug conversion in Sprague-Dawley rat assessed as half life of (2-(benzo[c][1,2,5]oxadiazol-5-ylmethoxy)-5-chloro-4-((2-fluoro-3'-(3-(4-hydroxypiperidin-1-yl)propoxy)-[1,1'-biphenyl]-3-yl)methoxy)benzyl)-D-serine at 9 mg/kg, iv measured upto 24 hrs by LC-MS/MS analysis; type: ADME, organism-based; conditions: in vivo
# [2] = Prodrug conversion in Sprague-Dawley rat assessed as Cmax of (2-(benzo[c][1,2,5]oxadiazol-5-ylmethoxy)-5-chloro-4-((2-fluoro-3'-(3-(4-hydroxypiperidin-1-yl)propoxy)-[1,1'-biphenyl]-3-yl)methoxy)benzyl)-D-serine at 9 mg/kg, iv measured upto 24 hrs by LC-MS/MS analysis; type: ADME, organism-based; conditions: in vivo
# [3] = Prodrug conversion in Sprague-Dawley rat assessed as AUC (0 to t) of (2-(benzo[c][1,2,5]oxadiazol-5-ylmethoxy)-5-chloro-4-((2-fluoro-3'-(3-(4-hydroxypiperidin-1-yl)propoxy)-[1,1'-biphenyl]-3-yl)methoxy)benzyl)-D-serine at 9 mg/kg, iv measured upto 24 hrs by LC-MS/MS analysis; type: ADME, organism-based; conditions: in vivo
# [4] = Prodrug conversion in C57BL/6 mouse assessed as clearance of (2-(benzo[c][1,2,5]oxadiazol-5-ylmethoxy)-5-chloro-4-((2-fluoro-3'-(3-(4-hydroxypiperidin-1-yl)propoxy)-[1,1'-biphenyl]-3-yl)methoxy)benzyl)-D-serine at 2 mg/kg, iv measured upto 24 hrs by LC-MS/MS analysis; type: ADME, organism-based; conditions: in vivo
# [5] = Prodrug conversion in C57BL/6 mouse assessed as half life of (2-(benzo[c][1,2,5]oxadiazol-5-ylmethoxy)-5-chloro-4-((2-fluoro-3'-(3-(4-hydroxypiperidin-1-yl)propoxy)-[1,1'-biphenyl]-3-yl)methoxy)benzyl)-D-serine at 10 mg/kg, po measured upto 24 hrs by LC-MS/MS analysis; type: ADME, organism-based; conditions: in vivo
# [6] = Acute toxicity in mouse assessed as signs of distress at 1000 mg/kg, po administered as single dose for 14 days; type: organism-based; conditions: in vivo, 336 h, time 14 day
# [7] = test system: MC-38; assay: Antitumor activity against mouse MC38 cells implanted in C57BL/6J mouse assessed as tumor growth inhibition at 25 mg/kg, po measured for 20 days; type: functional; conditions: MC-38, 480 h, time 20 day, read-out: TGI
# [8] = test system: CT26; assay: Antitumor activity against mouse CT26 cells implanted in BALB/c mouse assessed as tumor growth inhibition at 25 mg/kg, ip measured for 18 days; type: functional; conditions: CT26, 432 h, time 18 day, read-out: TGI
# [9] = test system: CT26; assay: Antitumor activity against mouse CT26 cells implanted in BALB/c mouse assessed as increase in percentage of CD8+ cells at 25 mg/kg, ip measured for 20 days; type: functional; conditions: time 20 day
# [10] = test system: CT26; assay: Antitumor activity against mouse CT26 cells implanted in BALB/c mouse assessed as reduction in Treg lymphocyte at 25 mg/kg, ip measured for 20 days; type: functional, organism-based; conditions: time 20.0 day
# [11] = test system: CT26; assay: Cytotoxicity against mouse CT26 cells assessed as effect on cell viability at 0.07 to 150 uM incubated for 48 hrs by CCK-8 assay; type: functional, cell-based; conditions: dose 0.07-150 µM
structure (smiles),measurement,setting,value
CCOC(=O)[C@@H](CO)NCc1cc(Cl)c(OCc2cccc(-c3cccc(OCCCN4CCC(O)CC4)c3)c2F)cc1OCc1ccc2nonc2c1.Cl.Cl,t1/2,[1],7.9 h
same,Cmax,[2],3760.7 ng/mL
same,AUCt,[3],2373.5 ng·h/mL
same,CL,[4],61.845 mL/min/kg
same,t1/2,[5],1.6 h
same,Activity,[6],Non-Toxic
same,inhibition in vivo at 25 mg/kg,[7],73.6%
same,inhibition in vivo at 25 mg/kg,[8],54.8%
same,Activity,[9],7.2%
same,Activity,[10],Active
same,Activity,[11],inactive
